Test results reported in EP0626016B1, “[…] […]” (BRITISH TECHNOLOGY GROUP LIMITED, priority 1992, dated 1993).

Key:
HRP Type VII = test: PBBA enhancement with different peroxidase enzymes (Example 4); format: biochemical, horseradish; conditions: for Signal Reagent with PBBA: 40µl of PBBA 0.01mg/ml
Protocol: Stock solutions (1mg/ml in 0.1mol/l Tris buffer, pH 8.6) of horseradish peroxidase Type VII, Type VIII and Arthromyces ramosus peroxidase (Sigma) were prepared. […] Luminol-hydrogen peroxide reagent (100µl, 1:10 dilution), either 40µl of PBBA (0.01mg/ml in 0.1mol/l Tris buffer, pH 8.6) or as a control, 40µl of Tris buffer (0.1mol/l, pH 8.6), and 10µl of HRP Type VII (1:50,000 dilution, 2ng) were added to a cuvette. The reagents were mixed and the light emission was recorded after 5 minutes using a Berthold Biolumat LB9500C.

HRP [1] = molecular target: T1, HRP (Armoracia rusticana, UniProt P00433); test: Enhanced chemiluminescent anti-oxidant assay using PBBA (Example 6); format: biochemical, horseradish
T1 construct: purchased Sigma Chemical Co
T1 sequence (P00433 31-338): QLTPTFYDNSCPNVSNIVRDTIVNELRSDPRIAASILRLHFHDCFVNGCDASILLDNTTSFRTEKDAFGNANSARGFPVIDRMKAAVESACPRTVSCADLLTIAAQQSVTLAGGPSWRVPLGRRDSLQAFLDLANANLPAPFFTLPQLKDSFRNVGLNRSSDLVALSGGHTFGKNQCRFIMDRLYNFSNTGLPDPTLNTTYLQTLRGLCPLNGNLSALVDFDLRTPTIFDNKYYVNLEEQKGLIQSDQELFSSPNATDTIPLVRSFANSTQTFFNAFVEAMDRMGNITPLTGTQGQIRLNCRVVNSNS
Protocol: The luminol-peroxide reagent (100µl), PBBA (40µl, 1:100 dilution of 1 mg/ml) and HRP (10µl, 1:50,000 dilution of 1mg/ml stock) were mixed together and the light emission measured for 25 minutes. A sample of human serum (2µl, 1:10 dilution in 0.1 mol/l Tris buffer, pH 8.6) was added and the light emission measured for a further 75 minutes.

HRP Type VIII = test: PBBA enhancement with different peroxidase enzymes (Example 4); format: biochemical, horseradish
Protocol: (§1) Stock solutions (1mg/ml in 0.1mol/l Tris buffer, pH 8.6) of horseradish peroxidase Type VII, Type VIII and Arthromyces ramosus peroxidase (Sigma) were prepared. The luminol-hydrogen peroxide reagent was prepared as described previously. Luminol-hydrogen peroxide reagent (100µl, 1:10 dilution), either 40µl of PBBA (0.01mg/ml in 0.1mol/l Tris buffer, pH 8.6) or as a control, 40µl of Tris buffer (0.1mol/l, pH 8.6), and 10µl of HRP Type VII (1:50,000 dilution, 2ng) were added to a cuvette. The reagents were mixed and the light emission was recorded after 5 minutes using a Berthold Biolumat LB9500C.
(§2) The above experiment was repeated and the HRP Type VII was replaced by HRP Type VIII (2ng) or Arthromyces ramosus peroxidase (20pg).

HRP [2] = molecular target: T1, HRP; test: Effect of fixed PBBA on light output with varying amounts of HRP (Example 1, part 2); format: biochemical, horseradish; conditions: for Signal (with PBBA): 40µl of PBBA 0.01mg/ml, after 5 minutes; for Signal: Background ratio: with PBBA
Protocol: The above experiment was repeated this time keeping the amount of PBBA enhancer fixed and varying the amount of HRP. The reagents used were 100µl of luminol-hydrogen peroxide, either (a) 40µl of PBBA (0.01mg/ml in 0.lmol/l Tris buffer, pH 8.6) or (b) as a control, 40µl of Tris buffer (0.1mol/l, pH 8.6) and various amounts of HRP (range 5µl to 40µl of 1:50,000 dilution of a lmg/ml stock solution).
The reagents were mixed and light output recorded after 5 minutes on a Berthold Biolumat LB9500C. […] An improved signal:background ratio is shown by comparing results with HRP present with the zero HRP results.

[3] = molecular target: T2, Arthromyces ramosus peroxidase (Arthromyces ramosus, UniProt P28313); test: PBBA enhancement with different peroxidase enzymes (Example 4); format: biochemical
T2 sequence (P28313 21-364): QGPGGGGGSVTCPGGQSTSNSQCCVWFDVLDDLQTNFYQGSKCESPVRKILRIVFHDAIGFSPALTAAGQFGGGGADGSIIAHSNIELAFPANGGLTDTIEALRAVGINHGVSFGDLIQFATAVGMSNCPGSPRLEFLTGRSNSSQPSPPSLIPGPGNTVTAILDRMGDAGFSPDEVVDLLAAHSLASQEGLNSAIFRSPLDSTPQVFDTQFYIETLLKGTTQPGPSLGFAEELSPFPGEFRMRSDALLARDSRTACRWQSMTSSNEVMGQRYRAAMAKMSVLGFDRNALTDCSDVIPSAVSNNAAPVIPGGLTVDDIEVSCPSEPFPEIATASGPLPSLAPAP
Protocol: as §1, §2

[4] = molecular target: T3, Anti-mouse IgG (whole molecule) peroxidase conjugate (Armoracia rusticana, UniProt P00433); test: Assay of peroxidase-antibody conjugate utilizing PBBA (Example 5); format: biochemical; conditions: for Signal (with PBBA): 40µl of PBBA 0.01 mg/ml; for Signal: Background: with PBBA
T3 sequence (P00433 31-338 limits assumed): T1 sequence (P00433 31-338)
Protocol: Anti-mouse IgG (whole molecule) peroxidase conjugate (Sigma Chemical Co.) was diluted (1:5000) in 0.1 mol/l Tris buffer (pH 8.6). The luminol-hydrogen peroxide was prepared as described previously. The following reagents were added to a cuvette: 100µl of luminol-hydrogen peroxide (1:10 dilution), either 40µl of PBBA (0.01 mg/ml in 0.1 mol/l Tris buffer) or as a control, 40µl of Tris buffer (0.1 mol/l, pH 8.6), and different amounts of anti-mouse IgG (5µl, 10µl, 20µl, 30µl, 40µl). The reagents were mixed and the light emission was measured using a Berthold Biolumat LB9500C.

[5] = in the presence of PBBA, result in words

SMILES: OB(O)c1ccc(Br)cc1 [PBBA, para-bromophenylboronic acid]
- Signal Reagent with PBBA (HRP Type VII; Blank (no peroxidase)): 27,820
- Signal Reagent with PBBA (HRP Type VII; HRP Type VII 2ng, after 5 minutes): 49,703
- Signal: Background (HRP Type VII; HRP Type VII, with PBBA): 1.8
- level of light output (HRP Type VII; any of the peroxidases tested (HRP Type VII, Type VIII, Arthromyces ramosus peroxidase), result in words): did not increase the level of light output
- signal to background ratio (HRP Type VII; in all cases (HRP Type VII, Type VIII, Arthromyces ramosus peroxidase), result in words): improved in all cases
- Light units (HRP [1]; Time 0 minutes, before serum): 5
- Light units (HRP [1]; Time 10 minutes, before serum): 16
- Light units (HRP [1]; Time 20 minutes, before serum): 68
- Light units (HRP [1]; Time 25 minutes, serum added): 88
- Light units (HRP [1]; Time 26 minutes, after human serum added): 3
- Light units (HRP [1]; Time 30 minutes, after human serum added): 3
- Light units (HRP [1]; Time 50 minutes, after human serum added): 5
- Light units (HRP [1]; Time 60 minutes, after human serum added): 15
- Light units (HRP [1]; Time 70 minutes, after human serum added): 49
- Light units (HRP [1]; Time 80 minutes, after human serum added): 60
- Light units (HRP [1]; Time 90 minutes, after human serum added): 81
- Light units (HRP [1]; Time 100 minutes, after human serum added): 90
- lag after which the light emission returns to its original level (HRP [1]; after addition of human serum (2µl, 1:10 dilution)): 34 min
- Signal Reagent with PBBA (HRP Type VIII; HRP Type VIII 2ng, 40µl of PBBA 0.01mg/ml, after 5 minutes): 156,204
- Signal: Background (HRP Type VIII; HRP Type VIII, with PBBA): 5.6
- Signal (with PBBA) (HRP [2]; HRP 0 pg): 9,125
- Signal (with PBBA) (HRP [2]; HRP 100 pg): 15,861
- Signal: Background ratio (HRP [2]; HRP 100 pg): 1.7
- Signal (with PBBA) (HRP [2]; HRP 200 pg): 22,895
- Signal: Background ratio (HRP [2]; HRP 200 pg): 2.5
- Signal (with PBBA) (HRP [2]; HRP 400 pg): 38,495
- Signal: Background ratio (HRP [2]; HRP 400 pg): 4.2
- Signal (with PBBA) (HRP [2]; HRP 600 pg): 61,491
- Signal: Background ratio (HRP [2]; HRP 600 pg): 6.7
- Signal (with PBBA) (HRP [2]; HRP 800 pg): 105,972
- Signal: Background ratio (HRP [2]; HRP 800 pg): 11.6
- light output of the chemiluminescent reaction (HRP [2]; at all concentrations tested, result in words): increased the light output
- Signal Reagent with PBBA ([3]; Arthromyces ramosus peroxidase 20pg, 40µl of PBBA 0.01mg/ml, after 5 minutes): 58,208
- Signal: Background ([3]; Arthromyces ramosus peroxidase, with PBBA): 2.1
- Signal (with PBBA) ([4]; Anti-mouse IgG-HRP 0 (µl)): 18,832
- Signal (with PBBA) ([4]; Anti-mouse IgG-HRP 5 (µl), 1:5000 dilution): 27,665
- Signal: Background ([4]; Anti-mouse IgG-HRP 5 (µl)): 1.5
- Signal (with PBBA) ([4]; Anti-mouse IgG-HRP 10 (µl), 1:5000 dilution): 32,849
- Signal: Background ([4]; Anti-mouse IgG-HRP 10 (µl)): 1.7
- Signal (with PBBA) ([4]; Anti-mouse IgG-HRP 20 (µl), 1:5000 dilution): 68,994
- Signal: Background ([4]; Anti-mouse IgG-HRP 20 (µl)): 3.7
- Signal (with PBBA) ([4]; Anti-mouse IgG-HRP 30 (µl), 1:5000 dilution): 407,087
- Signal: Background ([4]; Anti-mouse IgG-HRP 30 (µl)): 21.6
- light emission [4, 5]: increased
- signal to background ratio for the assay of the HRP conjugate [4, 5]: significantly improved
